Tests used:
GST-Bcl-2 = GST-Bcl-2 (Homo sapiens, UniProt P10415); experiment: TR-FRET binding assay, GST-Bcl-2 with F-Bak peptide probe; conditions: for Ki: TR-FRET Binding Affinity, GST-Bcl-2, F-Bak peptide probe
In short: (§1)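 Competitive TR-FRET: GST-fusion protein, fluorescent Bak peptide probe and Tb-labelled anti-GST antibody incubated with compound dilution series (starting 50 μM as 2× stock, 10% DMSO) for 3 h at RT. Excitation 340/35 nm; Ki derived via Wang's exact competitive-binding equation.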

FL5.12/Bcl-2 cells = experiment: FL5.12/Bcl-2 cell viability assay under IL-3 withdrawal (CellTitre Glo); type: cell-based, murine; conditions: Mus musculus, IL-3 withdrawn 48 hrs, then 24 hrs with compound
In short: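 Bcl-2-overexpressing murine FL5.12 transfectants underwent IL-3 removal for 48 hrs before a 24 hr compound treatment. Cell viability was quantified with CellTitre Glo.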

GST-Bcl-XL = GST-Bcl-XL (Homo sapiens, UniProt Q07817); experiment: TR-FRET binding assay, GST-Bcl-XL with F-Bak peptide probe; conditions: TR-FRET Binding Affinity, GST-Bcl-XL, F-Bak peptide probe
In short: as §1

Chain of GST-Bcl-2 (P10415 whole entry, the tested form may be a part): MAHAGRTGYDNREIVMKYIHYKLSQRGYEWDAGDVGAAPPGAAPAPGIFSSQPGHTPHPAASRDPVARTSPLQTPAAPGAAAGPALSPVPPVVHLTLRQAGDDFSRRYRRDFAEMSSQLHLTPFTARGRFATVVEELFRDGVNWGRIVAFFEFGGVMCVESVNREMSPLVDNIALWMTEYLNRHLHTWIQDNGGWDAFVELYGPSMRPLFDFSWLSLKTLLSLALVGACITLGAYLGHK
Chain of GST-Bcl-XL (Q07817 whole entry): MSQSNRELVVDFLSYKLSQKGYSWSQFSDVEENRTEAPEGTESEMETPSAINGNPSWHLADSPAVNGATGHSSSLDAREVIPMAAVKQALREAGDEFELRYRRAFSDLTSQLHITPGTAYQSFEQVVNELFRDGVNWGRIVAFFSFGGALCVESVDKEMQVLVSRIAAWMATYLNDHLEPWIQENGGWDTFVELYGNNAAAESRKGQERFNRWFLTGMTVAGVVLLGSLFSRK

Row | Structure (SMILES) | Ki (GST-Bcl-2) [nM] | EC50 (FL5.12/Bcl-2 cells) [nM] | Ki (GST-Bcl-XL) [nM] | Binding selectivity ratio (Bcl-XL Ki/Bcl-2 Ki) (GST-Bcl-2; ratio of TR-FRET Ki values, Bcl-XL over Bcl-2)
1 | CN1CCC(Nc2ccc(S(=O)(=O)NC(=O)c3ccc(N4CCN(Cc5cc(OCCO)ccc5-c5ccc(Cl)cc5)CC4)cc3Oc3cccc4[nH]ccc34)cc2[N+](=O)[O-])CC1 [Example 221, 4-(4-{[4′-chloro-4-(2-hydroxyethoxy)-1,1′-biphenyl-2-yl]methyl}piperazin-1-yl)-2-(1H-indol-4-yloxy)-N-({4-[(1-methylpiperidin-4-yl)amino]-3-nitrophenyl}sulfonyl)benzamide] | 0.057 | 149 | 170 | –
2 | CC(C)[C@H](CO)Nc1ccc(S(=O)(=O)NC(=O)c2ccc(N3CCN(CC4=C(c5ccc(Cl)cc5)CC(C)(C)CC4)CC3)cc2Oc2ccc3[nH]ccc3c2)cc1[N+](=O)[O-] [Example 371, 4-(4-{[2-(4-chlorophenyl)-4,4-dimethylcyclohex-1-en-1-yl]methyl}piperazin-1-yl)-N-[(4-{[(1R)-1-(hydroxymethyl)-2-methylpropyl]amino}-3-nitrophenyl)sulfonyl]-2-(1H-indol-5-yloxy)benzamide] | 8.38 | > 500 | > 660 | –
3 | CC1(C)CCC(CN2CCN(c3ccc(C(=O)NS(=O)(=O)c4ccc(NCC5CCOCC5)c([N+](=O)[O-])c4)c(Oc4cccc5c4CCNC5)c3)CC2)=C(c2ccc(Cl)cc2)C1 [Example 399, 4-(4-{[2-(4-chlorophenyl)-4,4-dimethylcyclohex-1-en-1-yl]methyl}piperazin-1-yl)-N-({3-nitro-4-[(tetrahydro-2H-pyran-4-ylmethyl)amino]phenyl}sulfonyl)-2-(1,2,3,4-tetrahydroisoquinolin-5-yloxy)benzamide] | 2.92 | > 500 | > 660000 | >225764.5
4 | CC(=O)N1CCC(Nc2ccc(S(=O)(=O)NC(=O)c3ccc(N4CCN(CC5=C(c6ccc(Cl)cc6)CC(C)(C)CC5)CC4)cc3Oc3ccc4[nH]ccc4c3)cc2[N+](=O)[O-])CC1 [Example 334, N-({4-[(1-acetylpiperidin-4-yl)amino]-3-nitrophenyl}sulfonyl)-4-(4-{[2-(4-chlorophenyl)-4,4-dimethylcyclohex-1-en-1-yl]methyl}piperazin-1-yl)-2-(1H-indol-5-yloxy)benzamide] | 0.179 | 65.9 | > 660 | –
5 | CC1(C)CCC(CN2CCN(c3ccc(C(=O)NS(=O)(=O)c4ccc(NCC5CCOCC5)c([N+](=O)[O-])c4)c(Oc4cccc5[nH]cnc45)c3)CC2)=C(c2ccc(Cl)cc2)C1 [Example 403, 2-(1H-benzimidazol-4-yloxy)-4-(4-{[2-(4-chlorophenyl)-4,4-dimethylcyclohex-1-en-1-yl]methyl}piperazin-1-yl)-N-({3-nitro-4-[(tetrahydro-2H-pyran-4-ylmethyl)amino]phenyl}sulfonyl)benzamide] | 0.003 | 2.92 | 24.3 | –
6 | C[C@@H](c1ccccc1-c1ccc(Cl)cc1)N1CCN(c2ccc(C(=O)NS(=O)(=O)c3ccc(NCC4CCOCC4)c([N+](=O)[O-])c3)c(Oc3cccc4[nH]ccc34)c2)CC1 [Example 256, 4-{4-[(1S)-1-(4′-chloro-1,1′-biphenyl-2-yl)ethyl]piperazin-1-yl}-2-(1H-indol-4-yloxy)-N-({3-nitro-4-[(tetrahydro-2H-pyran-4-ylmethyl)amino]phenyl}sulfonyl)benzamide] | 0.12 | 8.89 | > 660 | –
7 | CC1(C)CCC(CN2CCN(c3ccc(C(=O)NS(=O)(=O)c4ccc(OCC5CCOCC5)c([N+](=O)[O-])c4)c(Oc4cccc5[nH]ccc45)c3)CC2)=C(c2ccc(Cl)cc2)C1 [Example 289, 4-(4-{[2-(4-chlorophenyl)-4,4-dimethylcyclohex-1-en-1-yl]methyl}piperazin-1-yl)-2-(1H-indol-4-yloxy)-N-{[3-nitro-4-(tetrahydro-2H-pyran-4-ylmethoxy)phenyl]sulfonyl}benzamide] | 0.112 | 27.4 | > 660 | –
8 | CC1(C)CC(c2ccc(Cl)cc2)=C(CN2CCN(c3ccc(C(=O)NS(=O)(=O)c4ccc(NCC5CCOCC5)c([N+](=O)[O-])c4)c(Oc4ccc5[nH]ccc5c4)c3)CC2)CO1 [Example 182, 4-(4-{[4-(4-chlorophenyl)-6,6-dimethyl-5,6-dihydro-2H-pyran-3-yl]methyl}piperazin-1-yl)-2-(1H-indol-5-yloxy)-N-({3-nitro-4-[(tetrahydro-2H-pyran-4-ylmethyl)amino]phenyl}sulfonyl)benzamide] | 0.087 | 12.4 | > 660 | –
9 | CC(C)(C)c1ccc(CN2CCN(c3ccc(C(=O)NS(=O)(=O)c4ccc(NC5CCN(C6CCOCC6)CC5)c([N+](=O)[O-])c4)c(Oc4ccc5[nH]ccc5c4)c3)CC2)c(-c2ccc(Cl)cc2)c1 [Example 359, 4-{4-[(5-tert-butyl-4′-chloro-1,1′-biphenyl-2-yl)methyl]piperazin-1-yl}-2-(1H-indol-5-yloxy)-N-({3-nitro-4-[(1-tetrahydro-2H-pyran-4-ylpiperidin-4-yl)amino]phenyl}sulfonyl)benzamide] | 13.5 | > 500 | > 660 | –
10 | CC1(C)CCC(CN2CCN(c3ccc(C(=O)NS(=O)(=O)c4ccc(NC5CCN(C6CCOCC6)CC5)c([N+](=O)[O-])c4)c(Oc4ccc5[nH]ccc5c4)c3F)CC2)=C(c2ccc(Cl)cc2)C1 [Example 185, 4-(4-{[2-(4-chlorophenyl)-4,4-dimethylcyclohex-1-en-1-yl]methyl}piperazin-1-yl)-3-fluoro-2-(1H-indol-5-yloxy)-N-({3-nitro-4-[(1-tetrahydro-2H-pyran-4-ylpiperidin-4-yl)amino]phenyl}sulfonyl)benzamide] | 0.228 | 63.4 | 82.6 | –
11 | CC1(C)CCC(CN2CCN(c3ccc(C(=O)NS(=O)(=O)c4ccc(NC5CCN(C6CCOCC6)CC5)c([N+](=O)[O-])c4)c(Oc4ccc5[nH]ccc5c4)c3)CC2CO)=C(c2ccc(Cl)cc2)C1 (stereo not shown) [Example 219, 4-[4-{[2-(4-chlorophenyl)-4,4-dimethylcyclohex-1-en-1-yl]methyl}-3-(hydroxymethyl)piperazin-1-yl]-2-(1H-indol-5-yloxy)-N-({3-nitro-4-[(1-tetrahydro-2H-pyran-4-ylpiperidin-4-yl)amino]phenyl}sulfonyl)benzamide] | 0.236 | 23 | 29.9 | –
12 | CC1(C)CCC(CN2CCN(c3ccc(C(=O)NS(=O)(=O)c4ccc(NCCN5CCCC5=O)c([N+](=O)[O-])c4)c(Oc4ccc5[nH]ccc5c4)c3)CC2)=C(c2ccc(Cl)cc2)C1 [Example 251, 4-(4-{[2-(4-chlorophenyl)-4,4-dimethylcyclohex-1-en-1-yl]methyl}piperazin-1-yl)-2-(1H-indol-5-yloxy)-N-[(3-nitro-4-{[2-(2-oxopyrrolidin-1-yl)ethyl]amino}phenyl)sulfonyl]benzamide] | 0.328 | 78.1 | 472 | –
13 | CC1(C)CCC(CN2CCN(c3ccc(C(=O)NS(=O)(=O)c4ccc(NCC5CCOCC5)c([N+](=O)[O-])c4)c(Oc4ccc5[nH]ccc5c4)c3)CC2)=C(c2ccc(Cl)cc2)C1 [Example 177, 4-(4-{[2-(4-chlorophenyl)-4,4-dimethylcyclohex-1-en-1-yl]methyl}piperazin-1-yl)-2-(1H-indol-5-yloxy)-N-({3-nitro-4-[(tetrahydro-2H-pyran-4-ylmethyl)amino]phenyl}sulfonyl)benzamide] | 0.165 | 19.7 | 132 | –

Source: patent publication US9073855B2, “BCL-2 selective apoptosis-inducing agents for the treatment of cancer and immune diseases” (AbbVie Inc., priority 2008, dated 2015)
